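Test compounds were applied to cells in 96-well plates for 48 hours at 5 doses. GI50 = concentration required for 50% inhibition of growth. At the TGI there is no net growth.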
How the values were obtained:
Assay in all cases: NCI-60 cell line screen, 48 h; in the data active means GI50 below about 0.43 µM; inactive means the rest
M14 melanoma = system: M14 melanoma
NCI-H460 lung = system: NCI-H460 lung
OVCAR-3 ovarian = system: OVCAR-3 ovarian
CCRF-CEM leukemia = system: CCRF-CEM leukemia
SF-268 CNS = system: SF-268 CNS
LOX IMVI melanoma = system: LOX IMVI melanoma
SF-539 CNS = system: SF-539 CNS
DU-145 prostate = system: DU-145 prostate
MOLT-4 leukemia = system: MOLT-4 leukemia
EKVX NSCLC = system: EKVX NSCLC
SK-OV-3 ovarian = system: SK-OV-3 ovarian
K-562 leukemia = system: K-562 leukemia
U251 CNS = system: U251 CNS
MDA-MB-435 = system: MDA-MB-435
MDA-MB-231 breast = system: MDA-MB-231 breast
HCT-116 colon = system: HCT-116 colon
SW-620 colon = system: SW-620 colon
IGROV1 ovarian = system: IGROV1 ovarian
BT-549 breast = system: BT-549 breast
MCF7 breast = system: MCF7 breast
TK-10 renal = system: TK-10 renal
NCI-H226 lung = system: NCI-H226 lung
SNB-19 CNS = system: SNB-19 CNS
UACC-257 melanoma = system: UACC-257 melanoma
RPMI-8226 leukemia = system: RPMI-8226 leukemia
SR leukemia = system: SR leukemia
HCT-15 colon = system: HCT-15 colon
SK-MEL-2 melanoma = system: SK-MEL-2 melanoma
OVCAR-5 ovarian = system: OVCAR-5 ovarian
HL-60(TB) leukemia = system: HL-60(TB) leukemia
HCC-2998 colon = system: HCC-2998 colon
HOP-92 NSCLC = system: HOP-92 NSCLC
SN12C renal = system: SN12C renal
T-47D breast = system: T-47D breast
OVCAR-8 ovarian = system: OVCAR-8 ovarian
SK-MEL-28 melanoma = system: SK-MEL-28 melanoma
UACC-62 melanoma = system: UACC-62 melanoma
COLO 205 colon = system: COLO 205 colon
MALME-3M melanoma = system: MALME-3M melanoma
786-0 renal = system: 786-0 renal
A498 renal = system: A498 renal
ACHN renal = system: ACHN renal
RXF 393 renal = system: RXF 393 renal
SK-MEL-5 melanoma = system: SK-MEL-5 melanoma
PC-3 prostate = system: PC-3 prostate
OVCAR-4 ovarian = system: OVCAR-4 ovarian
HT29 colon = system: HT29 colon
KM12 colon = system: KM12 colon
NCI-H23 lung = system: NCI-H23 lung
SF-295 CNS = system: SF-295 CNS
UO-31 renal = system: UO-31 renal
NCI/ADR-RES ovarian = system: NCI/ADR-RES ovarian
HOP-62 NSCLC = system: HOP-62 NSCLC
SNB-75 CNS = system: SNB-75 CNS
NCI-H522 lung = system: NCI-H522 lung
HS 578T breast = system: HS 578T breast
A549 NSCLC = system: A549 NSCLC

C=C1[C@@H](C)C2[C@H](Cc3ccccc3)NC(=O)[C@]23[C@H](OC(C)=O)/C=C/[C@@](C)(O)C(=O)[C@@H](C)C/C=C/[C@H]3[C@@H]1O (stereo not given in full)
> 16.7 µM: TGI (M14 melanoma) | TGI (NCI-H460 lung) | TGI (OVCAR-3 ovarian) | TGI (CCRF-CEM leukemia) | TGI (SF-268 CNS) | TGI (SF-539 CNS) | TGI (DU-145 prostate) | TGI (MOLT-4 leukemia) | TGI (EKVX NSCLC) | TGI (K-562 leukemia) | TGI (U251 CNS) | TGI (MDA-MB-435) | TGI (MDA-MB-231 breast) | TGI (HCT-116 colon) | TGI (SW-620 colon) | TGI (IGROV1 ovarian) | TGI (BT-549 breast) | TGI (MCF7 breast) | TGI (TK-10 renal) | TGI (NCI-H226 lung) | TGI (SNB-19 CNS) | TGI (UACC-257 melanoma) | TGI (RPMI-8226 leukemia) | TGI (SR leukemia) | TGI (HCT-15 colon) | TGI (SK-MEL-2 melanoma) | TGI (OVCAR-5 ovarian) | TGI (HL-60(TB) leukemia) | TGI (HCC-2998 colon) | TGI (SN12C renal) | TGI (T-47D breast) | TGI (OVCAR-8 ovarian) | TGI (SK-MEL-28 melanoma) | TGI (UACC-62 melanoma) | TGI (COLO 205 colon) | TGI (MALME-3M melanoma) | TGI (786-0 renal) | TGI (ACHN renal) | TGI (PC-3 prostate) | TGI (OVCAR-4 ovarian) | TGI (HT29 colon) | TGI (KM12 colon) | TGI (NCI-H23 lung) | TGI (SF-295 CNS) | TGI (NCI/ADR-RES ovarian) | TGI (NCI-H522 lung) | TGI (HS 578T breast) | TGI (A549 NSCLC)
4.19 µM: TGI (RXF 393 renal)
inactive: GI50 (M14 melanoma) > 11.4 µM | GI50 (NCI-H460 lung) 0.571 µM | GI50 (OVCAR-3 ovarian) > 16.7 µM | GI50 (CCRF-CEM leukemia) > 11.8 µM | GI50 (DU-145 prostate) 7.04 µM | GI50 (EKVX NSCLC) 0.975 µM | GI50 (K-562 leukemia) > 16.7 µM | GI50 (MDA-MB-435) > 16.7 µM | GI50 (HCT-116 colon) 0.718 µM | GI50 (SW-620 colon) > 16.7 µM | GI50 (IGROV1 ovarian) 0.574 µM | GI50 (BT-549 breast) 0.528 µM | GI50 (MCF7 breast) 0.756 µM | GI50 (TK-10 renal) 0.714 µM | GI50 (NCI-H226 lung) 16.5 µM | GI50 (UACC-257 melanoma) > 16.7 µM | GI50 (RPMI-8226 leukemia) 3.84 µM | GI50 (SR leukemia) > 15.7 µM | GI50 (SK-MEL-2 melanoma) > 16.7 µM | GI50 (OVCAR-5 ovarian) > 9.92 µM | GI50 (HL-60(TB) leukemia) 5.31 µM | GI50 (HCC-2998 colon) > 16.7 µM | GI50 (SN12C renal) > 16.7 µM | GI50 (T-47D breast) > 16.7 µM | GI50 (OVCAR-8 ovarian) > 16.7 µM | GI50 (SK-MEL-28 melanoma) > 16.7 µM | GI50 (UACC-62 melanoma) > 16.7 µM | GI50 (COLO 205 colon) 2.32 µM | GI50 (MALME-3M melanoma) > 16.7 µM | GI50 (ACHN renal) 1.32 µM | GI50 (SK-MEL-5 melanoma) 0.955 µM | GI50 (PC-3 prostate) > 16.7 µM | GI50 (OVCAR-4 ovarian) 0.824 µM | GI50 (KM12 colon) > 16.7 µM | GI50 (NCI-H23 lung) > 16.7 µM | GI50 (SF-295 CNS) 1.16 µM | GI50 (NCI/ADR-RES ovarian) > 16.7 µM | GI50 (A549 NSCLC) 0.915 µM
3.58 µM: TGI (UO-31 renal)
> 8.76 µM: TGI (LOX IMVI melanoma)
0.826 µM: TGI (A498 renal)
active: GI50 (SF-268 CNS) 0.228 µM | GI50 (LOX IMVI melanoma) 0.272 µM | GI50 (SF-539 CNS) 0.322 µM | GI50 (SK-OV-3 ovarian) 0.0997 µM | GI50 (U251 CNS) 0.105 µM | GI50 (MDA-MB-231 breast) 0.366 µM | GI50 (SNB-19 CNS) 0.265 µM | GI50 (HOP-92 NSCLC) 0.099 µM | GI50 (A498 renal) 0.11 µM | GI50 (RXF 393 renal) 0.105 µM | GI50 (HT29 colon) 0.0933 µM | GI50 (UO-31 renal) 0.251 µM | GI50 (HOP-62 NSCLC) 0.035 µM | GI50 (SNB-75 CNS) 0.0126 µM | GI50 (HS 578T breast) 0.0826 µM
> 15.2 µM: TGI (SK-OV-3 ovarian)
> 11.8 µM: TGI (SK-MEL-5 melanoma)
> 4.4 µM: TGI (HOP-62 NSCLC)
0.699 µM: TGI (HOP-92 NSCLC)
0.12 µM: TGI (SNB-75 CNS)
